Tested on: rice blast
Assay type: cell-based
Conditions: acetone solution at 500 ppm, 1000 μl dropped on oatmeal medium; 8 mm rice blast disc; 25° C. for five days; fungal filament elongation vs acetone-only treatment

COc1nc(-c2ccccn2)nc(F)c1C(F)(F)F [Example 3, 6-fluoro-4-methoxy-2-(2-pyridyl)-5-trifluoromethylpyrimidine]
Preventive value: 80
